Earlier results in patent publication US20260174730A1, “A COMPOSITION FOR TREATING PARKINSON'S DISEASE” (COUNCIL OF SCIENTIFIC & INDUSTRIAL RESEARCH, priority 2023, published 2026).

System: oxygen-glucose deprivation in vitro

In the case of `C/C(=C\COc1ccc2ccc(=O)oc2c1)CC[C@@H]1C(C)(C)[C@H]2CC[C@]1(C)O2` [farnesiferol C], the neuroprotective activity is listed as “moderate neuroprotective activity”.
